According to publication PMC9814900 (Communications Chemistry, 2022):
Numbered stars: 1 amine (or outer) side, 2 acyl side, 3 side chain; on linkers, the order of the positions; unused ones are H or OH. Bridge positions count the residues as written; N and C are the ends. Peptide text beside a SMILES is read from it. C6F4(1,4-diyl) = Fc1c(F)c([*:2])c(F)c(F)c1[*:1]

Target: T1, SUMO-25-109MDM2 (Homo sapiens, UniProt Q00987)
T1 construct: the ^25-109MDM2 gene was purchased from Addgene; made in house; host or cells: E. coli Rosetta (DE3) pLysS
Assay: In-solution competition assay by biolayer interferometry (BLI)
Assay type: binding
Details: not given

Compound | Kd [nM]
CC(C)C[C@H](NC(=O)[C@@H]1CSc2c(F)c(F)c(c(F)c2F)SC[C@H](NC(=O)[C@H](C)NC(=O)[C@H](Cc2ccccc2)NC(=O)[C@H](CO)NC(=O)[C@@H](N)[C@@H](C)O)C(=O)N[C@@H](Cc2ccc(O)cc2)C(=O)N[C@@H](Cc2c[nH]c3ccccc23)C(=O)N[C@@H](CC(N)=O)C(=O)N1)C(=O)N[C@@H](CO)C(=O)N1CCC[C@H]1C(N)=O [Peptide 13] (H-TSFACYWNCLSP-NH2; linker 5-9 via C6F4(1,4-diyl)) | 36 ± 8.5
CC(C)C[C@H](NC(=O)[C@H](C)NC(=O)[C@H](Cc1c[nH]c2ccccc12)NC(=O)[C@H](Cc1ccc(O)cc1)NC(=O)[C@H](CCC(=O)O)NC(=O)[C@H](C)NC(=O)[C@H](Cc1ccccc1)NC(=O)[C@H](CO)NC(=O)[C@@H](N)[C@@H](C)O)C(=O)N[C@@H](CC(C)C)C(=O)N[C@@H](CO)C(=O)N[C@@H](C)C(N)=O [Peptide 8] (H-TSFAEYWALLSA-NH2) | 0.7 ± 0.5

Same assay, conditions: Figs 3-5; peptide pre-incubated 30 min with ~50 or ~100 nM SUMO-25-109MDM2 in PBS, 0.05% Tween-20, 1 mg/mL BSA; sensor loaded with Biotin-PEG4-p53(15-29); 30 °C; response after 2 min; read-out: KD, competition assay using BLI

Compound | Kd [nM]
CC(C)C[C@@H]1NC(=O)[C@H](C)NC(=O)[C@@H](NC(=O)[C@H](Cc2c[nH]c3ccccc23)NC(=O)[C@H](Cc2ccc(O)cc2)NC(=O)[C@H](CCC(=O)O)NC(=O)[C@H](C)NC(=O)[C@H](Cc2ccccc2)NC(=O)[C@H](CO)NC(=O)[C@@H](N)[C@@H](C)O)CSc2c(F)c(F)c(c(F)c2F)SC[C@@H](C(N)=O)NC(=O)[C@H](CO)NC1=O [Peptide 40] (H-TSFAEYWCALSC-NH2; linker 8-12 via C6F4(1,4-diyl)) | 0.7 ± 0.5
CC(C)C[C@H](NC(=O)[C@H](CC(N)=O)NC(=O)[C@H](Cc1c[nH]c2ccccc12)NC(=O)[C@@H]1CSc2c(F)c(F)c(c(F)c2F)SC[C@H](NC(=O)[C@@H](N)[C@@H](C)O)C(=O)N[C@@H](Cc2ccccc2)C(=O)N[C@@H](C)C(=O)N[C@@H](CCC(=O)O)C(=O)N1)C(=O)N[C@@H](CC(C)C)C(=O)N[C@@H](CO)C(=O)N1CCC[C@H]1C(N)=O [Peptide 10] (H-TCFAECWNLLSP-NH2; linker 2-6 via C6F4(1,4-diyl)) | 449 ± 57
CC(C)C[C@H](NC(=O)[C@H](CC(N)=O)NC(=O)[C@@H]1CSc2c(F)c(F)c(c(F)c2F)SC[C@H](NC(=O)[C@H](CO)NC(=O)[C@@H](N)[C@@H](C)O)C(=O)N[C@@H](C)C(=O)N[C@@H](CCC(=O)O)C(=O)N[C@@H](Cc2ccc(O)cc2)C(=O)N1)C(=O)N[C@@H](CC(C)C)C(=O)N[C@@H](CO)C(=O)N1CCC[C@H]1C(N)=O [Peptide 11] (H-TSCAEYCNLLSP-NH2; linker 3-7 via C6F4(1,4-diyl)) | 1620 ± 263
CC(C)C[C@H](NC(=O)[C@H](CC(N)=O)NC(=O)[C@H](Cc1c[nH]c2ccccc12)NC(=O)[C@H](C)NC(=O)[C@H](CCC(=O)O)NC(=O)[C@H](C)NC(=O)[C@H](Cc1ccccc1)NC(=O)[C@H](CO)NC(=O)[C@@H](N)[C@@H](C)O)C(=O)N[C@@H](C)C(=O)N[C@@H](CO)C(=O)N1CCC[C@H]1C(N)=O [Peptide 6] (H-TSFAEAWNLASP-NH2) | 1440 ± 390

Same assay, conditions: supplementary binding validation; N=1; ~250 nM SUMO-25-109MDM2; read-out: KD, competition BLI assay

Compound | Kd [nM]
CC(C)C[C@H](NC(=O)[C@H](CC(N)=O)NC(=O)[C@H](Cc1c[nH]c2ccccc12)NC(=O)[C@H](Cc1ccc(O)cc1)NC(=O)[C@@H]1CSc2c(F)c(F)c(c(F)c2F)SC[C@H](N)C(=O)N[C@@H](CO)C(=O)N[C@@H](Cc2ccccc2)C(=O)N[C@@H](C)C(=O)N1)C(=O)N[C@@H](CC(C)C)C(=O)N[C@@H](CO)C(=O)N1CCC[C@H]1C(N)=O [Peptide 9] (H-CSFACYWNLLSP-NH2; linker 1-5 via C6F4(1,4-diyl)) | 925 ± 70

Same assay, conditions: supplementary binding validation; averaged over three measurements; ~30-100 nM SUMO-25-109MDM2 as given per peptide; read-out: Averaged KD, competition BLI assay

Compound | Kd [nM]
CC(C)C[C@H](NC(=O)[C@H](CC(N)=O)NC(=O)[C@H](Cc1c[nH]c2ccccc12)NC(=O)[C@H](C)NC(=O)[C@H](CCC(=O)O)NC(=O)[C@H](C)NC(=O)[C@H](Cc1ccccc1)NC(=O)[C@H](C)NC(=O)[C@@H](N)[C@@H](C)O)C(=O)N[C@@H](CC(C)C)C(=O)N[C@@H](CO)C(=O)N1CCC[C@H]1C(N)=O [Peptide 2] (H-TAFAEAWNLLSP-NH2) | 628 ± 89
CC(C)C[C@@H]1NC(=O)[C@H](CC(C)C)NC(=O)[C@@H](NC(=O)[C@H](Cc2c[nH]c3ccccc23)NC(=O)[C@H](Cc2ccc(O)cc2)NC(=O)[C@H](CCC(=O)O)NC(=O)[C@H](C)NC(=O)[C@H](Cc2ccccc2)NC(=O)[C@H](CO)NC(=O)[C@@H](N)[C@@H](C)O)CSc2c(F)c(F)c(c(F)c2F)SC[C@@H](C(N)=O)NC(=O)[C@H](CO)NC1=O [Peptide 16] (H-TSFAEYWCLLSC-NH2; linker 8-12 via C6F4(1,4-diyl)) | 3 ± 1.3
CC(C)C[C@H](NC(=O)[C@@H]1CSc2c(F)c(F)c(c(F)c2F)SC[C@H](NC(=O)[C@H](Cc2ccccc2)NC(=O)[C@H](CO)NC(=O)[C@@H](N)[C@@H](C)O)C(=O)N[C@@H](CCC(=O)O)C(=O)N[C@@H](Cc2ccc(O)cc2)C(=O)N[C@@H](Cc2c[nH]c3ccccc23)C(=O)N1)C(=O)N[C@@H](CC(C)C)C(=O)N[C@@H](CO)C(=O)N1CCC[C@H]1C(N)=O [Peptide 12] (H-TSFCEYWCLLSP-NH2; linker 4-8 via C6F4(1,4-diyl)) | 26 ± 5
CC(C)C[C@H](NC(=O)[C@H](CC(N)=O)NC(=O)[C@H](C)NC(=O)[C@H](Cc1ccc(O)cc1)NC(=O)[C@H](CCC(=O)O)NC(=O)[C@H](C)NC(=O)[C@H](C)NC(=O)[C@H](CO)NC(=O)[C@@H](N)[C@@H](C)O)C(=O)N[C@@H](CC(C)C)C(=O)N[C@@H](CO)C(=O)N1CCC[C@H]1C(N)=O [Peptide 3] (H-TSAAEYANLLSP-NH2) | 4910 ± 713
CC(C)C[C@@H]1NC(=O)[C@H](C)NC(=O)[C@@H](NC(=O)[C@H](Cc2c[nH]c3ccccc23)NC(=O)[C@H](Cc2ccc(O)cc2)NC(=O)[C@H](CCC(=O)O)NC(=O)[C@H](C)NC(=O)[C@H](Cc2ccccc2)NC(=O)[C@H](CO)NC(=O)[C@@H](N)[C@@H](C)O)CSc2c(F)c(F)c(c(F)c2F)SC[C@@H](C(N)=O)NC(=O)[C@H](CO)NC1=O [Peptide 40] (H-TSFAEYWCALSC-NH2; linker 8-12 via C6F4(1,4-diyl)) | 0.2 ± 0.1
CC(C)C[C@H](NC(=O)[C@@H]1CSc2c(F)c(F)c(c(F)c2F)SC[C@H](NC(=O)[C@H](C)NC(=O)[C@H](Cc2ccccc2)NC(=O)[C@H](CO)NC(=O)[C@@H](N)[C@@H](C)O)C(=O)N[C@@H](Cc2ccc(O)cc2)C(=O)N[C@@H](Cc2c[nH]c3ccccc23)C(=O)N[C@@H](C)C(=O)N1)C(=O)N[C@@H](CO)C(=O)N[C@@H](C)C(N)=O [Peptide 37] (H-TSFACYWACLSA-NH2; linker 5-9 via C6F4(1,4-diyl)) | 1.6 ± 1.3
CC(C)C[C@H](NC(=O)[C@H](CC(N)=O)NC(=O)[C@H](Cc1c[nH]c2ccccc12)NC(=O)[C@@H]1CSc2c(F)c(F)c(c(F)c2F)SC[C@H](NC(=O)[C@@H](N)[C@@H](C)O)C(=O)N[C@@H](Cc2ccccc2)C(=O)N[C@@H](C)C(=O)N[C@@H](CCC(=O)O)C(=O)N1)C(=O)N[C@@H](CC(C)C)C(=O)N[C@@H](CO)C(=O)N1CCC[C@H]1C(N)=O [Peptide 10] (H-TCFAECWNLLSP-NH2; linker 2-6 via C6F4(1,4-diyl)) | 431 ± 46
CC(C)C[C@@H]1NC(=O)[C@H](CC(N)=O)NC(=O)[C@@H](NC(=O)[C@H](Cc2ccc(O)cc2)NC(=O)[C@H](CCC(=O)O)NC(=O)[C@H](C)NC(=O)[C@H](Cc2ccccc2)NC(=O)[C@H](CO)NC(=O)[C@@H](N)[C@@H](C)O)CSc2c(F)c(F)c(c(F)c2F)SC[C@@H](C(=O)N2CCC[C@H]2C(N)=O)NC(=O)[C@H](CC(C)C)NC1=O [Peptide 15] (H-TSFAEYCNLLCP-NH2; linker 7-11 via C6F4(1,4-diyl)) | 1150 ± 209
CC(C)C[C@H](NC(=O)[C@H](C)NC(=O)[C@H](CC(N)=O)NC(=O)[C@H](Cc1c[nH]c2ccccc12)NC(=O)[C@H](Cc1ccc(O)cc1)NC(=O)[C@H](C)NC(=O)[C@H](C)NC(=O)[C@H](Cc1ccccc1)NC(=O)[C@H](CO)NC(=O)[C@@H](N)[C@@H](C)O)C(=O)N[C@@H](CO)C(=O)N1CCC[C@H]1C(N)=O [Peptide 5] (H-TSFAAYWNALSP-NH2) | 30 ± 3.8
CC(C)C[C@H](NC(=O)[C@H](CC(N)=O)NC(=O)[C@H](Cc1c[nH]c2ccccc12)NC(=O)[C@H](Cc1ccc(O)cc1)NC(=O)[C@H](C)NC(=O)[C@H](C)NC(=O)[C@H](Cc1ccccc1)NC(=O)[C@H](CO)NC(=O)[C@H](C)N)C(=O)N[C@@H](CC(C)C)C(=O)N[C@@H](CO)C(=O)N1CCC[C@H]1C(N)=O [Peptide 1] (H-ASFAAYWNLLSP-NH2) | 10 ± 2.3
CC(C)C[C@H](NC(=O)[C@H](C)NC(=O)[C@@H]1CSc2c(F)c(F)c(c(F)c2F)SC[C@H](NC(=O)[C@H](Cc2ccccc2)NC(=O)[C@H](C)NC(=O)[C@H](C)N)C(=O)N[C@@H](CCC(=O)O)C(=O)N[C@@H](Cc2ccc(O)cc2)C(=O)N[C@@H](Cc2c[nH]c3ccccc23)C(=O)N1)C(=O)N[C@@H](CO)C(=O)N1CCC[C@H]1C(N)=O [Peptide 35] (H-AAFCEYWCALSP-NH2; linker 4-8 via C6F4(1,4-diyl)) | 316 ± 27
CC(C)C[C@H](NC(=O)[C@H](CC(C)C)NC(=O)[C@H](CC(N)=O)NC(=O)[C@H](C)NC(=O)[C@H](Cc1ccc(O)cc1)NC(=O)[C@H](CCC(=O)O)NC(=O)[C@H](C)NC(=O)[C@H](Cc1ccccc1)NC(=O)[C@H](CO)NC(=O)[C@@H](N)[C@@H](C)O)C(=O)N[C@@H](C)C(=O)N1CCC[C@H]1C(N)=O [Peptide 7] (H-TSFAEYANLLAP-NH2) | 1220 ± 231
CC(C)C[C@H](NC(=O)[C@H](CC(N)=O)NC(=O)[C@@H]1CSc2c(F)c(F)c(c(F)c2F)SC[C@H](NC(=O)[C@H](CO)NC(=O)[C@@H](N)[C@@H](C)O)C(=O)N[C@@H](C)C(=O)N[C@@H](CCC(=O)O)C(=O)N[C@@H](Cc2ccc(O)cc2)C(=O)N1)C(=O)N[C@@H](CC(C)C)C(=O)N[C@@H](CO)C(=O)N1CCC[C@H]1C(N)=O [Peptide 11] (H-TSCAEYCNLLSP-NH2; linker 3-7 via C6F4(1,4-diyl)) | 1590 ± 315
CC(C)C[C@H](NC(=O)[C@H](CC(N)=O)NC(=O)[C@H](Cc1c[nH]c2ccccc12)NC(=O)[C@H](C)NC(=O)[C@H](CCC(=O)O)NC(=O)[C@H](C)NC(=O)[C@H](Cc1ccccc1)NC(=O)[C@H](CO)NC(=O)[C@@H](N)[C@@H](C)O)C(=O)N[C@@H](C)C(=O)N[C@@H](CO)C(=O)N1CCC[C@H]1C(N)=O [Peptide 6] (H-TSFAEAWNLASP-NH2) | 2140 ± 390
CC(C)C[C@@H]1NC(=O)[C@H](CC(N)=O)NC(=O)[C@H](Cc2c[nH]c3ccccc23)NC(=O)[C@@H](NC(=O)[C@H](CCC(=O)O)NC(=O)[C@H](C)NC(=O)[C@H](Cc2ccccc2)NC(=O)[C@H](CO)NC(=O)[C@@H](N)[C@@H](C)O)CSc2c(F)c(F)c(c(F)c2F)SC[C@@H](C(=O)N[C@@H](CO)C(=O)N2CCC[C@H]2C(N)=O)NC1=O [Peptide 14] (H-TSFAECWNLCSP-NH2; linker 6-10 via C6F4(1,4-diyl)) | 2020 ± 514

Target: MDM2
Assay: not given
Details: KD of single alanine mutant relative to PMI; ref 3 of supplement (Li et al., J. Mol. Biol. 2010); cited from earlier work

Compound | KD ratio
TSFAEYANLLSP [Peptide W7A] | 50720
TSFAEYWNLLAP [Peptide S11A] | 1.2
TSFAEYWNLASP [Peptide L10A] | 227
TSFAEYWNLLSA [Peptide P12A] | 0.7
ASFAEYWNLLSP [Peptide T1A] | 1.9
TAFAEYWNLLSP [Peptide S2A] | 8.4
TSAAEYWNLLSP [Peptide F3A] | 11750
TSFAEAWNLLSP [Peptide Y6A] | 191
TSFAEYWNALSP [Peptide L9A] | 0.8
TSFAAYWNLLSP [Peptide E5A] | 6.7
